Data reported in EP0110570A2, “Triazole antifungal agents” (Pfizer Limited, priority 1982, dated 1984).
Like-named read-outs stand apart in the source and are kept apart here.

Tested on: Candida albicans
Test: In vivo protection of mice inoculated with Candida albicans (PD50)
Conditions: read-out: PD50
Description: The in vivo evaluation of the compounds can be carried out at a series of dose levels by intraperitoneal or intravenous injection or by oral administration, to mice which are inoculated with a strain of Candida albicans. Activity is based on the survival of a treated group of mice after the death of an untreated group of mice following 48 hours observation. The dose level at which the compound provides 50% protection against the lethal effect of the infection (PD50) is noted.
Using the test method described previously in the text, the following PD50 values (mg./kg.) were obtained in mice infected with Candida albicans:-

[1] = mice infected with Candida albicans, dose level giving 50% protection against the lethal effect of the infection, survival after 48 hours observation, route not specified (intraperitoneal, intravenous or oral)

Structure (SMILES): Fc1ccc(C(Cl)(Cn2cncn2)C(F)(F)F)c(F)c1 (centres unmarked) [Example 1, 1-[2-chloro-2-(2,4-difluorophenyl)-3,3,3-trifluoropropyl]-1H-1,2,4-triazole]
- ED50 [1]: 0.15 mg/kg

Structure (SMILES): FC(F)(F)C(Cl)(Cn1cncn1)c1ccc(Cl)cc1 (centres unmarked) [Example 2]
- ED50 [1]: 0.6 mg/kg

Structure (SMILES): Fc1ccc(C(Cl)(Cn2cncn2)C(F)(F)F)cc1 (centres unmarked) [Example 3]
- ED50 [1]: 0.6 mg/kg

Structure (SMILES): Fc1ccc(C(Cl)(Cn2cncn2)C(F)(F)C(F)(F)F)cc1 (centres unmarked) [Example 4]
- ED50 [1]: < 1 mg/kg

Structure (SMILES): Fc1ccc(C(Cl)(Cn2cncn2)C(F)(F)C(F)(F)C(F)(F)F)c(F)c1 (centres unmarked) [Example 5]
- ED50 (Candida albicans, 48 h): < 1 mg/kg
